Assay results as given in ChEMBL document CHEMBL2311351, “Synthesis and biological evaluation of triazolothienopyrimidine derivatives as novel HIV-1 replication inhibitors” (Bioorg Med Chem Lett, 2013).

Assays:
[1] = Therapeutic index, ratio of CC50 for human CEmx174 cells expressing LTR-GFP to EC50 for HIV1 LAI; conditions: read-out: Ratio CC50/EC50
[2] = test system: Human immunodeficiency virus 1; assay: Antiviral activity against HIV1 LAI infected in CEMx174-LTR-GFP cells assessed as inhibition of viral replication after 5 days by fluorescence assay; assay type: functional, organism-based
[3] = Cytotoxicity against human CEmx174 cells expressing LTR-GFP; assay type: cell-based
[4] = test system: Human immunodeficiency virus 1; assay: Antiviral activity against HIV1 LAI infected in CEMx174-LTR-GFP cells assessed as inhibition of viral replication at 10 uM after 5 days by fluorescence assay; assay type: functional; conditions: Human immunodeficiency virus 1, LAI, 120 h
[5] = Human immunodeficiency virus 1, LAI, 120 h, read-out: EC50

SMILES	EC50 [2, 5] [µM]	EC50 [2]	selectivity ratio [1]	CC50 [3] [µM]	inhibition at 10 µM [4] [%]
O=S(=O)(c1cc(Cl)cc(Cl)c1)c1nnn2c1nc(N1CCOCC1)c1sccc12	4		12.7	51	
O=S(=O)(c1cccc(Cl)c1)c1nnn2c1nc(N1CCN(Cc3ccccc3)CC1)c1sccc12	0.71		> 70	> 50	
O=C(O)c1nnn2c1nc(N1CCOCC1)c1sccc12	4.8		8.7	42	
O=S(=O)(c1nnn2c1nc(N1CCOCC1)c1sccc12)C1CCCCC1		Not Active		> 50	
O=C(c1cccc(Cl)c1)c1nnn2c1nc(N1CCOCC1)c1sccc12	0.93		> 53	> 50	
CCOC(=O)c1nnn2c1nc(N1CCOCC1)c1sccc12	0.8		> 62	> 50	
O=C(Nc1cccc(Cl)c1)c1nnn2c1nc(N1CCOCC1)c1sccc12	0.37		> 135	> 50	
O=C(Nc1ccc(Cl)cc1)c1nnn2c1nc(N1CCOCC1)c1sccc12	16		3.5	57	
CCS(=O)(=O)c1nnn2c1nc(N1CCOCC1)c1sccc12		Not Active		> 50	
Cc1ccnc2c1NC(=O)c1cccnc1N2C1CC1 [NEVIRAPINE]	0.15			> 10	
O=C(Nc1ccccc1Cl)c1nnn2c1nc(N1CCOCC1)c1sccc12	3.5		> 14	> 50	
O=S(=O)(c1cccc(OC(F)(F)F)c1)c1nnn2c1nc(N1CCOCC1)c1sccc12	10		> 5	> 50	
COc1cccc(S(=O)(=O)c2nnn3c2nc(N2CCOCC2)c2sccc23)c1	1.1		> 45	> 50	
Cc1ccc(S(=O)(=O)c2nnn3c2nc(NCCC(C)C)c2sccc23)cc1C	9.84				
CC(C)CCNc1nc2c(S(=O)(=O)c3cccc(Cl)c3)nnn2c2ccsc12					58
O=S(=O)(c1cccc(F)c1)c1nnn2c1nc(N1CCOCC1)c1sccc12	0.85		> 58	> 50	
O=S(=O)(c1ccccc1)c1nnn2c1nc(N1CCOCC1)c1sccc12	16		2.4	39	
O=S(=O)(c1cccc(Cl)c1)c1nnn2c1nc(N1CCCCCC1)c1sccc12	4		8.7	35	
O=S(=O)(c1cccc(Cl)c1)c1nnn2c1nc(NC1CCCCC1)c1sccc12	6.7		> 7.4	> 50	
O=S(=O)(c1ccc(Cl)cc1)c1nnn2c1nc(N1CCOCC1)c1sccc12	5		14	70	
O=S(=O)(c1cccc(Br)c1)c1nnn2c1nc(N1CCOCC1)c1sccc12	3.3		> 15	> 50	
O=S(=O)(c1ccccc1Cl)c1nnn2c1nc(N1CCOCC1)c1sccc12	1.1		50	56	

The next lines start with results.

EC50 [2, 5] [µM]	EC50 [2]	SMILES	selectivity ratio [1]	CC50 [3] [µM]	inhibition at 10 µM [4] [%]
0.32		COc1cccc(-c2nc3c(S(=O)(=O)c4cccc(Cl)c4)nnn3c3ccsc23)c1	143	46	
2.3		O=S(=O)(c1cccc(Cl)c1)c1nnn2c1nc(Nc1ccccc1)c1sccc12	> 21	> 50	
0.54		O=S(=O)(c1cccc(Cl)c1)c1nnn2c1nc(-c1cccc(Cl)c1)c1sccc12	87	47	
0.51		CCOc1ccc(-c2nc3c(S(=O)(=O)c4cccc(Cl)c4)nnn3c3ccsc23)cc1	119	61	
2.2		CC(C)Nc1nc2c(S(=O)(=O)c3cccc(Cl)c3)nnn2c2ccsc12	> 22	> 50	
2.1		CN(c1ccccc1)c1nc2c(S(=O)(=O)c3cccc(Cl)c3)nnn2c2ccsc12	> 23	> 50	
0.87		O=S(=O)(c1cccc(Cl)c1)c1nnn2c1nc(-c1ccc(O)cc1)c1sccc12	11	10	
0.19		O=S(=O)(c1cccc(Cl)c1)c1nnn2c1nc(N1CCCCC1)c1sccc12	394	75	
1.9		COCCNc1nc2c(S(=O)(=O)c3cccc(Cl)c3)nnn2c2ccsc12	> 26	> 50	
0.53		O=S(=O)(c1cccc(Cl)c1)c1nnn2c1nc(-c1ccc(Cl)cc1)c1sccc12	86	46	
0.27		O=S(=O)(c1cccc(Cl)c1)c1nnn2c1nc(-c1ccccc1)c1sccc12	225	61	
0.06		COc1ccc(-c2nc3c(S(=O)(=O)c4cccc(Cl)c4)nnn3c3ccsc23)cc1	1000	60	
2.1		CN1CCN(c2nc3c(S(=O)(=O)c4cccc(Cl)c4)nnn3c3ccsc23)CC1	> 23	> 50	
3.1		CN(C)c1ccc(-c2nc3c(S(=O)(=O)c4cccc(Cl)c4)nnn3c3ccsc23)cc1	> 16	> 50	
0.67		O=S(=O)(c1cccc(Cl)c1)c1nnn2c1nc(-c1ccccc1Cl)c1sccc12	> 74	> 50	
0.84		Cc1ccc(-c2nc3c(S(=O)(=O)c4cccc(Cl)c4)nnn3c3ccsc23)cc1	72	61	
1.6		Nc1nc2c(S(=O)(=O)c3cccc(Cl)c3)nnn2c2ccsc12	> 31	> 50	
0.27		O=S(=O)(c1cccc(Cl)c1)c1nnn2c1nc(N1CCOCC1)c1sccc12	274	74	
1.3		COc1ccccc1-c1nc2c(S(=O)(=O)c3cccc(Cl)c3)nnn2c2ccsc12	34	45	
